Literature values, collected in patent publication EP0385476B2, “Physiologically active polypeptide and DNA” (SHIONOGI & CO., LTD., priority 1989, dated 1999).

Test system: chicken rectum
Conditions: relative to ANP

porcine brain natriuretic peptide [pBNP]
rectum relaxation activity, times higher than that of ANP: 3 to 4 times
